The numbers were not newly measured in US12030986B2, “Sustained release composition using biobased biodegradable hyperbranched polyesters” (CENTRAL MICHIGAN UNIVERSITY, priority 2014, dated 2024), which cites them from elsewhere.

One may read the pKa as the negative logarithm of the acid dissociation constant. As to `O=C(O)[C@@H]1C[C@@H](O)CN1` (relative stereo) [trans-4-hydroxyproline], the pKa is reported as 1.8.

On to `O=P(O)(O)O[C@H]1[C@H](OP(=O)(O)O)[C@@H](OP(=O)(O)O)[C@H](OP(=O)(O)O)[C@@H](OP(=O)(O)O)[C@H]1OP(=O)(O)O` [Phytic, phytic acid], for which the pKa is recorded as 1.8.

On to `N[C@@H](CC(=O)O)C(=O)O` [aspartic], for which the pKa was 2.0.

As for `O=C(O)/C=C(/CC(=O)O)C(=O)O` [cis-aconitic], the pKa was 2.0.

`NC(CS(=O)(=O)O)C(=O)O` (stereo not drawn) [cysteic]: the pKa is on record as 1.3.

For the compound `N[C@@H](CCC(=O)O)C(=O)O` [glutamic], the pKa is listed as 2.1.

With `N[C@@H](CCSSCC[C@H](N)C(=O)O)C(=O)O` [homocystine], the pKa is reported as 1.6.

On to `CNCC(=O)O` [methlyglycine], for which the pKa is reported as 2.2.

`O=C(O)c1cccnc1` [nicotinic]: the pKa is reported as 2.2.

`O=C(O)c1ccccn1` [picolinic acid]: the pKa is 1.0.

Take `CC(=O)C(=O)O` [pyruvic]: the pKa is given as 2.4.

As to `C[C@@H](O)[C@H](N)C(=O)O` [threonine], the pKa is reported as 2.1.
